{
  "source": "paper PMC8896685",
  "about": "(PLoS ONE, 2022)",
  "molecular_target": "T1, Rat GLP-1R (Rattus norvegicus, UniProt P32301)",
  "T1 construct": "a plasmid encoding either the glucagon receptor or the GLP-1 receptor from the relevant species; expressed in transfected cells",
  "T1 sequence (P32301 22-463)": "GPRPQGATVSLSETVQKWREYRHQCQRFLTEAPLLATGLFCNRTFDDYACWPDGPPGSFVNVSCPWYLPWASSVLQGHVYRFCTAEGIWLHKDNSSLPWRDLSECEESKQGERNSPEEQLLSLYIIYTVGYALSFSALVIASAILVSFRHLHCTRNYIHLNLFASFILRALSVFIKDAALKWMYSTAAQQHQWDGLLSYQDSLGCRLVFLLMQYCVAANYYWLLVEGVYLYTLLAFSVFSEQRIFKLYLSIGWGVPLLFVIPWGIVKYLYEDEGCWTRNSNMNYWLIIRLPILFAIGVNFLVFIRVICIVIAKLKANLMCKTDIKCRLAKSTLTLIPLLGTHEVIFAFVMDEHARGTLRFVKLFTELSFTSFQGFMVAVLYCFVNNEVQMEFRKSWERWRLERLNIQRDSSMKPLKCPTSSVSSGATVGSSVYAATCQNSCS",
  "assay": "Receptor potency, CRE-luciferase functional assay in BHK cells",
  "type": "cell-based",
  "conditions": "Rat receptors, whole BHK cells, 0% plasma, 3 h 37°C, value (95% CI)",
  "note": "Numbered stars: 1 amine (or outer) side, 2 acyl side, 3 side chain; on linkers, the order of the positions; unused ones are H or OH. Square brackets hold non-standard residues; d marks the D form. Side chains are listed from the residue outwards. Peptide text beside a SMILES is read from it. * marks the point of attachment. C18 diacid = O=C(O)CCCCCCCCCCCCCCCCC(=O)*; γGlu = O=C(O)[C@H](CCC(=O)[*:2])N[*:1]; AEEA = NCCOCCOCC(=O)O; Aib = CC(C)(N)C(=O)O",
  "data": [
    {"compound": "CC(C)C[C@H](NC(=O)[C@H](CC(C)C)NC(=O)[C@H](Cc1c[nH]c2ccccc12)NC(=O)[C@H](CCC(N)=O)NC(=O)[C@@H](NC(=O)[C@H](Cc1ccccc1)NC(=O)[C@H](CCC(=O)O)NC(=O)[C@H](CCCNC(=N)N)NC(=O)[C@H](C)NC(=O)[C@H](C)NC(=O)[C@H](CCCNC(=N)N)NC(=O)[C@H](CO)NC(=O)[C@H](CC(=O)O)NC(=O)[C@H](CC(C)C)NC(=O)[C@H](Cc1ccc(O)cc1)NC(=O)[C@H](CCCCN)NC(=O)[C@H](CO)NC(=O)[C@H](CC(C)C)NC(=O)[C@H](CC(=O)O)NC(=O)[C@H](CO)NC(=O)[C@@H](NC(=O)[C@H](Cc1ccccc1)NC(=O)[C@@H](NC(=O)CNC(=O)[C@H](CCC(=O)O)NC(=O)C(C)(C)NC(=O)[C@@H](N)Cc1c[nH]cn1)[C@@H](C)O)[C@@H](C)O)C(C)C)C(=O)N[C@@H](CC(N)=O)C(=O)N[C@@H](CCCCNC(=O)CC[C@H](NC(=O)CC[C@H](NC(=O)COCCOCCNC(=O)COCCOCCNC(=O)CC[C@H](NC(=O)CCCCCCCCCCCCCCCCC(=O)O)C(=O)O)C(=O)O)C(=O)O)C(N)=O", "note": "[GLP-1 reference] (H-H[Aib]EGTFTSDLSKYLDSRAAREFVQWLLNK([γGlu-γGlu-AEEA-AEEA-γGlu-C18 diacid])-NH2)", "values": [
      {"measurement": "EC50", "value": 2.99, "unit": "pM"}
    ]}
  ]
}
